pIC50: −log10 of the molar value. Values joined by “and” are separate entries in the source; they are usually repeats but may differ in a detail not shown here. Equal entries are not always repeated.
The molecules below were run against Recombinant human IDO (Homo sapiens, UniProt P14902) (assay: Bridge-IT tryptophan fluorescence assay of human IDO-1 inhibition). Conditions: recombinant human IDO 7.5 nM, L-tryptophan.
Type: biochemical
Procedure: Measurement of human IDO-1 inhibition is performed in 384 well format using the Bridge-IT® tryptophan Fluorescence Assay (Mediomics, LLC, St. Louis, Mo., U.S.A.).
The reaction is initiated by the addition of L-Tryptophan (Sigma) at a final concentration of 100 μM in assay buffer. After 90 minutes of incubation at 37° C., the reaction is stopped by transferring 1 μl of the reaction mixture to 9 μl of Bridge-IT assay solution A. After 30 min of incubation at 30° C., the fluorescence intensity was measured at λex=485 nm and λem=665 nm using Perkin Elmer Envision® Multilabel Reader.
Measurement of human IDO-1 inhibition was performed in 384-well format using the BRIDGE-IT® tryptophan Fluorescence Assay (Mediomics, LLC, St. Louis, Mo., U.S.A.). […] After 30 minutes of pre-incubation at 25° C., the reaction was initiated by the addition of L-Tryptophan (Sigma) at a final concentration of 50 μM in assay buffer. After 60 minutes of incubation at 25° C., the reaction is stopped by transferring 1 μl of the reaction mixture to 9 μl of Bridge-IT assay solution A. After 30 min of incubation at 30° C., the fluorescence intensity was measured at λex=485 nm and λem=665 nm using Perkin Elmer ENVISION® Multilabel Reader.

Chain of Recombinant human IDO (P14902 whole entry): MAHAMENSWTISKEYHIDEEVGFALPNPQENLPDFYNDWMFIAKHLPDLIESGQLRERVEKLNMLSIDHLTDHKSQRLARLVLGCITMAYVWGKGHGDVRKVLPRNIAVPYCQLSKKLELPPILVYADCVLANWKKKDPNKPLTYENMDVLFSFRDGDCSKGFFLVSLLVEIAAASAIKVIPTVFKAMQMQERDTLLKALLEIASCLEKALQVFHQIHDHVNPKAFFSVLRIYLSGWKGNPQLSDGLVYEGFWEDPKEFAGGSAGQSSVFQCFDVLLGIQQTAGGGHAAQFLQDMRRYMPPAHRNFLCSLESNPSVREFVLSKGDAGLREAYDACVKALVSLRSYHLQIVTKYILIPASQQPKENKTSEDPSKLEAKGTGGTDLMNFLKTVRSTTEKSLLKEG

Q: With `FC1(CCC2c3ncccc3-c3cncn32)CCCCC1` (single isomer, unassigned) [Compound 18a, 7-[2-(1-fluorocyclohexyl)ethyl]-4,6,9-triazatricyclo[6.4.0.0^[2,6]]dodeca-1(8),2,4,9,11-pentaene] as the molecule, how does the pIC50 read?
A: 6.00 to 7.00

Q: How did the pIC50 turn out when `O=C(C1CCC(F)(CCC2c3c(F)cccc3-c3cncn32)CC1)N1CCCCC1` (centres unmarked) [Compound 110a] was run?
A: > 7.00

Q: How did the pIC50 turn out when `COc1ccc2c(n1)C(CC(O)C1CCCCC1)n1cncc1-2` (single isomer, unassigned) [Compound 39b, 1-Cyclohexyl-2-[10-methoxy-4,6,9-triazatricyclo[6.4.0.0^[2,6]]dodeca-1(8),2,4,9,11-pentaen-7-yl]ethan-1-ol] was run?
A: 6.00 to 7.00

Q: With `OC(CC1c2ncccc2-c2cncn21)C1(F)CCCCC1` (centres unmarked) [Compound 109b, 1-(1-fluorocyclohexyl)-2-[4,6,9-triazatricyclo[6.4.0.0^[2,6]]dodeca-1(8),2,4,9,11-pentaen-7-yl]ethan-1-ol] as the molecule, how does the pIC50 read?
A: 6.00 to 7.00

Q: `NC(=O)C1CCC(C(O)CC2c3ncccc3-c3cncn32)CC1` (single isomer, unassigned) [Compound 63b, 4-[1-hydroxy-2-[4,6,9-triazatricyclo[6.4.0.0^[2,6]]dodeca-1(8),2,4,9,11-pentaen-7-yl]ethyl]cyclohexane-1-carboxamide] was tested. Which pIC50 did it give?
A: < 6.00

Q: `FC1(CCC2c3nc(C(F)(F)F)ccc3-c3cncn32)CCCCC1` (single isomer, unassigned) [Compound 76a, 7-[2-(1-fluorocyclohexyl)ethyl]-10-(trifluoromethyl)-4,6,9-triazatricyclo[6.4.0.0^[2,6]]dodeca-1(8),2,4,9,11-pentaene] was tested. Which pIC50 did it give?
A: < 6.00

Q: How did the pIC50 turn out when `OC(CC1c2ncccc2-c2cncn21)C1CCOCC1` (single isomer, unassigned) [Compound 92a, 1-(oxan-4-yl)-2-[4,6,9-triazatricyclo[6.4.0.0^[2,6]]dodeca-1(8),2,4,9,11-pentaen-7-yl]ethan-1-ol] was run?
A: < 6.00

Q: How did the pIC50 turn out when `NC(=O)C1CCC(C(O)CC2c3ncccc3-c3cncn32)CC1` (single isomer, unassigned) [Compound 63d, 4-[1-hydroxy-2-[4,6,9-triazatricyclo[6.4.0.0^[2,6]]dodeca-1(8),2,4,9,11-pentaen-7-yl]ethyl]cyclohexane-1-carboxamide] was run?
A: < 6.00

Q: How did the pIC50 turn out when `OCC1CCC(C(O)CC2c3ncccc3-c3cncn32)CC1` (centres unmarked) [Compound 73a, 1-[4-(hydroxymethyl)cyclohexyl]-2-[4,6,9-triazatricyclo[6.4.0.0^[2,6]]dodeca-1(8),2,4,9,11-pentaen-7-yl]ethan-1-ol] was run?
A: < 6.00

Q: With `FC(CC1c2ncccc2-c2cncn21)C1CCCCC1` (single isomer, unassigned) [Compound 97b, 7-[2-cyclohexyl-2-fluoroethyl]-4,6,9-triazatricyclo[6.4.0.0^[2,6]]dodeca-1(8),2,4,9,11-pentaene] as the molecule, how does the pIC50 read?
A: 6.00 to 7.00

Q: How did the pIC50 turn out when `CN(C)C(=O)C1CCC(F)(CCC2c3c(Cl)cccc3-c3cncn32)CC1` (single isomer, unassigned) [Compound 114b, 4-[2-[6-chloro-5H-imidazo[4,3-a]isoindol-5-yl]ethyl]-4-fluoro-N,N-dimethylcyclohexane-1-carboxamide] was run?
A: > 7.00

Q: How did the pIC50 turn out when `FC1(CCC2c3c(Cl)cccc3-c3cncn32)CCC2(CC1)CC2` (single isomer, unassigned) [Compound 91a, 6-chloro-5-(2-[6-fluorospiro[2.5]octan-6-yl]ethyl)-5H-imidazo[4,3-a]isoindole] was run?
A: < 6.00

Q: With `OC(CC1c2nc(C(F)(F)F)ccc2-c2cncn21)C1CCC(F)(F)CC1` (single isomer, unassigned) [Compound 77a, 1-(4,4-difluorocyclohexyl)-2-[10-(trifluoromethyl)-4,6,9-triazatricyclo[6.4.0.0^[2,6]]dodeca-1(8),2,4,9,11-pentaen-7-yl]ethan-1-ol] as the molecule, how does the pIC50 read?
A: < 6.00

Q: With `FC1(CCC2c3ccccc3-c3cncn32)CCOCC1` (single isomer, unassigned) [Compound 94b, 5-[2-(4-fluorooxan-4-yl)ethyl]-5H-imidazo[4,3-a]isoindole] as the molecule, how does the pIC50 read?
A: > 7.00

Q: `OC1CCC(F)(CCC2c3c(F)cccc3-c3cncn32)CC1` (single isomer, unassigned) [Compound 16a, 4-fluoro-4-(2-(6-fluoro-5H-imidazo[5,1-a]isoindol-5-yl)ethyl)cyclohexanol] was tested. Which pIC50 did it give?
A: > 7.00

Q: With `OC(CC1c2ncccc2-c2cncn21)C1(F)CCCCC1` (single isomer, unassigned) [Compound 109c, 1-(1-fluorocyclohexyl)-2-[4,6,9-triazatricyclo[6.4.0.0^[2,6]]dodeca-1(8),2,4,9,11-pentaen-7-yl]ethan-1-ol] as the molecule, how does the pIC50 read?
A: 6.00 to 7.00

Q: `CC(C)(O)C1CCC(F)(CCC2c3c(F)cccc3-c3cncn32)CC1` (centres unmarked) [Compound 86a, 2-[4-fluoro-4-(2-[6-fluoro-5H-imidazo[4,3-a]isoindol-5-yl]ethyl)cyclohexyl]propan-2-ol] was tested. Which pIC50 did it give?
A: 6.00 to 7.00

Q: How did the pIC50 turn out when `COc1cccc2c1-c1cncn1C2CCC1(F)CCCCC1` (single isomer, unassigned) [Compound 42b, 5-(2-(1-fluorocyclohexyl)ethyl)-9-methoxy-5H-imidazo[5,1-a]isoindole] was run?
A: 6.00 to 7.00

Q: With `OC1CCC(C(O)CC2c3ncccc3-c3cncn32)CC1` (centres unmarked) [Compound 6a, 4-[1-hydroxy-2-[4,6,9-triazatricyclo[6.4.0.0^[2,6]]dodeca-1(8),2,4,9,11-pentaen-7-yl]ethyl]cyclohexan-1-ol] as the molecule, how does the pIC50 read?
A: < 6.00

Q: With `OC(CC1c2nc(C(F)(F)F)ccc2-c2cncn21)C1CCC(F)(F)CC1` (single isomer, unassigned) [Compound 77c, 1-(4,4-difluorocyclohexyl)-2-[10-(trifluoromethyl)-4,6,9-triazatricyclo[6.4.0.0^[2,6]]dodeca-1(8),2,4,9,11-pentaen-7-yl]ethan-1-ol] as the molecule, how does the pIC50 read?
A: < 6.00

Q: How did the pIC50 turn out when `OC(CC1c2ncccc2-c2cncn21)C1CCC2(CC1)CC2` (single isomer, unassigned) [Compound 29c, 1-[spiro[2.5]octan-6-yl]-2-[4,6,9-triazatricyclo[6.4.0.0^[2,6]]dodeca-1(8),2,4,9,11-pentaen-7-yl]ethan-1-ol] was run?
A: 6.00 to 7.00

Q: `OC(CC1c2ncccc2-c2cncn21)C1CCC(C2(O)CC2)CC1` (single isomer, unassigned) [Compound 117d, 1-[4-[1-hydroxy-2-[4,6,9-triazatricyclo[6.4.0.0^[2,6]]dodeca-1(8),2,4,9,11-pentaen-7-yl]ethyl]cyclohexyl]cyclopropan-1-ol] was tested. Which pIC50 did it give?
A: < 6.00

Q: With `NC(=O)C1CCC(F)(CCC2c3c(F)cccc3-c3cncn32)CC1` (single isomer, unassigned) [Compound 81c, 4-fluoro-4-[2-[6-fluoro-5H-imidazo[4,3-a]isoindol-5-yl]ethyl]cyclohexane-1-carboxamide] as the molecule, how does the pIC50 read?
A: > 7.00

Q: With `OC(CC1c2ncncc2-c2cncn21)C1CCCCC1` (centres unmarked) [Compound 67a, 1-cyclohexyl-2-[4,6,9,11-tetraazatricyclo[6.4.0.0^[2,6]]dodeca-1(8),2,4,9,11-pentaen-7-yl]ethan-1-ol] as the molecule, how does the pIC50 read?
A: < 6.00 and 6.00 to 7.00

Q: With `Fc1cccc2c1-c1cncn1C2CCC1(F)CCCCC1` (single isomer, unassigned) [Compound 36b, 9-fluoro-5-(2-(1-fluorocyclohexyl)ethyl)-5H-imidazo[5,1-a]isoindole] as the molecule, how does the pIC50 read?
A: < 6.00

Q: With `O=C(C1CCC(F)(CCC2c3c(Cl)cccc3-c3cncn32)CC1)N1CCCCC1` (single isomer, unassigned) [Compound 115c] as the molecule, how does the pIC50 read?
A: 6.00 to 7.00

From patent US9771370B2, “Compounds for the inhibition of indoleamine-2,3-dioxygenase” (Merck Patent GmbH, priority 2014, dated 2017)
